Laboratory results: patent US12365696B2, “Small-molecule focal adhesion kinase (FAK) inhibitors” (DANA-FARBER CANCER INSTITUTE, INC., priority 2019, dated 2025)

Columns and labels:
Assay in all cases: KINOMEscan
Type in all cases: binding
AURKC = AURKC (Homo sapiens (Human), UniProt Q9UQB9); conditions: 10000 nM, read-out: Percent Control
FLT3(D835V) = FLT3(D835V) (Homo sapiens (Human), UniProt P36888, D835V); conditions: 10000 nM, read-out: Percent Control
MAP3K4 = MAP3K4 (Homo sapiens (Human), UniProt Q9Y6R4); conditions: MAP3K4, 10000 nM; read-out: Percent Control
MAP3K4, sequence (Q9Y6R4 whole entry): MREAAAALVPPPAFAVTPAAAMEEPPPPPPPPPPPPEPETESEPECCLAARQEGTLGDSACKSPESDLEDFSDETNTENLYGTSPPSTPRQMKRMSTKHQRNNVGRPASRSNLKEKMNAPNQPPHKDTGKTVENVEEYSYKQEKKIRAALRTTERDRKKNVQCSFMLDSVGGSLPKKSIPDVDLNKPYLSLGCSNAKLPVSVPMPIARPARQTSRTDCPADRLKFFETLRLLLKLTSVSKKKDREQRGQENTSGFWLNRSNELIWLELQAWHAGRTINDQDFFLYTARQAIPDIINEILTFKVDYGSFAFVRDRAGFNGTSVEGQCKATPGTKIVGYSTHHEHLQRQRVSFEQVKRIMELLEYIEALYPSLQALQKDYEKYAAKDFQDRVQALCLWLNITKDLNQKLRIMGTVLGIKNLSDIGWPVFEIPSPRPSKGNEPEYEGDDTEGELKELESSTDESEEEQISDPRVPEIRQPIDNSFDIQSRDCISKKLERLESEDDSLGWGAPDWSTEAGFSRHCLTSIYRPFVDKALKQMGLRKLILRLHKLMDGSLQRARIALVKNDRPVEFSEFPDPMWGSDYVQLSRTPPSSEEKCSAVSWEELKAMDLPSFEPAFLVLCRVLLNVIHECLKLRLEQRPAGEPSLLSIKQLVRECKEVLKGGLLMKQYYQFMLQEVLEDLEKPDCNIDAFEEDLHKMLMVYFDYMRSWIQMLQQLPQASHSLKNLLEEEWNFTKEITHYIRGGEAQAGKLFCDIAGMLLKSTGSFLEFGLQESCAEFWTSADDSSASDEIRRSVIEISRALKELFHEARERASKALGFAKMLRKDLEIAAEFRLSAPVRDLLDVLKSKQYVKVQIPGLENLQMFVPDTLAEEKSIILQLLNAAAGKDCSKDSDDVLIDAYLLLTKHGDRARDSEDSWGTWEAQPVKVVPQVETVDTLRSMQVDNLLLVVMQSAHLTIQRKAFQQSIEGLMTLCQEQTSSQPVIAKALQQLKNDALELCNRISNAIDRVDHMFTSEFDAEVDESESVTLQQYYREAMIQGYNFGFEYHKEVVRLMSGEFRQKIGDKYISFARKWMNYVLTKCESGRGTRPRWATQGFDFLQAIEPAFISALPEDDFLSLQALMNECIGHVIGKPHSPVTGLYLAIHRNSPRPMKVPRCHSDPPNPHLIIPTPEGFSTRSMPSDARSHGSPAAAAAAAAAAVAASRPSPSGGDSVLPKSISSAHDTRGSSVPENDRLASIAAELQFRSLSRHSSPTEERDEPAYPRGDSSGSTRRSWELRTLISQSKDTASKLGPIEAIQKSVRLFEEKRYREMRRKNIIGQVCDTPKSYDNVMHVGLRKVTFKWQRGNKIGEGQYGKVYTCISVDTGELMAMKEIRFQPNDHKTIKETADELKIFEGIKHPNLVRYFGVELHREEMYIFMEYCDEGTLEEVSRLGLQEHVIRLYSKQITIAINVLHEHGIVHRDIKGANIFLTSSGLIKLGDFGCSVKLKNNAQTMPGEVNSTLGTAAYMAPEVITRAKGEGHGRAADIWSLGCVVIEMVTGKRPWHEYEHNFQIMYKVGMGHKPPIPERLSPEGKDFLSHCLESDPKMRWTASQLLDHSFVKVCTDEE

PLK4 = PLK4 (Homo sapiens (Human), UniProt O00444); conditions: PLK4, 10000 nM; read-out: Percent Control
CSF1R-autoinhibited = CSF1R-autoinhibited (Homo sapiens (Human), UniProt P07333); conditions: 10000 nM, read-out: Percent Control
CSF1R-autoinhibited, sequence (P07333 539-972): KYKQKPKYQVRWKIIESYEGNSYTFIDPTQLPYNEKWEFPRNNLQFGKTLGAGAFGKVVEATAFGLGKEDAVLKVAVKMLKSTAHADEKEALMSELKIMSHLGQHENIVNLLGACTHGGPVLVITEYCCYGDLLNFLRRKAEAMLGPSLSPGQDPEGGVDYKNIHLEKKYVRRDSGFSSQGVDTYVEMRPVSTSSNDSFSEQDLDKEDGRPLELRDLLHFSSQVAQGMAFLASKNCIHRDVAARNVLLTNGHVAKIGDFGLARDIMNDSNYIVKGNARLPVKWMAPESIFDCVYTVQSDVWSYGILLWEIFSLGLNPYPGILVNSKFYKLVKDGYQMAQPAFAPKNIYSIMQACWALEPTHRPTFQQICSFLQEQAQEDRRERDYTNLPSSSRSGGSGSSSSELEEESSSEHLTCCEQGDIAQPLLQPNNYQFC

NLK = NLK (Homo sapiens (Human), UniProt Q9UBE8); conditions: 10000 nM, read-out: Percent Control
VEGFR2 = VEGFR2 (Homo sapiens (Human), UniProt P35968); conditions: VEGFR2, 10000 nM; read-out: Percent Control
NEK4 = NEK4 (Homo sapiens (Human), UniProt P51957); conditions: NEK4, 10000 nM; read-out: Percent Control
[1] = target: RSK4(Kin.Dom.1-N-terminal) (Homo sapiens (Human), UniProt Q9UK32); conditions: 10000 nM, read-out: Percent Control
PAK2 = PAK2 (Homo sapiens (Human), UniProt Q13177); conditions: PAK2, 10000 nM; read-out: Percent Control
CSNK2A2 = CSNK2A2 (Homo sapiens (Human), UniProt P19784); conditions: CSNK2A2, 10000 nM; read-out: Percent Control
BRK = BRK (Homo sapiens (Human), UniProt Q13882); conditions: 10000 nM, read-out: Percent Control
[2] = target: ABL1(F317L)-phosphorylated (Homo sapiens (Human), UniProt P00519, F317L); conditions: 10000 nM, read-out: Percent Control
ZAK = ZAK (Homo sapiens (Human), UniProt Q9NYL2); conditions: 10000 nM, read-out: Percent Control
[3] = target: RSK3(Kin.Dom.2-C-terminal) (Homo sapiens (Human), UniProt Q15349); conditions: 10000 nM, read-out: Percent Control
PIP5K1A = PIP5K1A (Homo sapiens (Human), UniProt Q99755); conditions: 10000 nM, read-out: Percent Control
MAP4K5 = MAP4K5 (Homo sapiens (Human), UniProt Q9Y4K4); conditions: MAP4K5, 10000 nM; read-out: Percent Control
MAP4K5, sequence (Q9Y4K4 whole entry): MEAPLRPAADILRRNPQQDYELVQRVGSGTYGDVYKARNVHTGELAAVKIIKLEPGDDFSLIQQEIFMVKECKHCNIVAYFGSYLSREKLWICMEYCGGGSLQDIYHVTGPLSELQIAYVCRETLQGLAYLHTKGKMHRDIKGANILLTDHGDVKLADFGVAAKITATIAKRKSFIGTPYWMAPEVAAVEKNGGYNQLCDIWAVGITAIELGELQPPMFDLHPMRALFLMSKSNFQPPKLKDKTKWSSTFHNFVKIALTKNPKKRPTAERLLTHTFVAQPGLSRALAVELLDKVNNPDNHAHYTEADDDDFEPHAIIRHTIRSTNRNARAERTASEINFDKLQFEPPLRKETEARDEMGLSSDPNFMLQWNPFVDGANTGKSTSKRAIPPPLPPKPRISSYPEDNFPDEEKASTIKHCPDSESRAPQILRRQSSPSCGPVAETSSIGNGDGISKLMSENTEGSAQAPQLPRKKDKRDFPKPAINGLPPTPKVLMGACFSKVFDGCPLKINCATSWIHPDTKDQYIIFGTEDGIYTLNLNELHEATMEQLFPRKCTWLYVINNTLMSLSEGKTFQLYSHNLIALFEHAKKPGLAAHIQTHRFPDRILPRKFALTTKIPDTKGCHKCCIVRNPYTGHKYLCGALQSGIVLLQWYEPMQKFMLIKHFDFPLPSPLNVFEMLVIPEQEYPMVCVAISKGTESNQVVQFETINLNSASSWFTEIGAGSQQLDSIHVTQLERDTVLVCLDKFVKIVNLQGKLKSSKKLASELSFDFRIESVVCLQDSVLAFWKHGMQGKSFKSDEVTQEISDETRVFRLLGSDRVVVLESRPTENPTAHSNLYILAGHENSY

PLK3 = PLK3 (Homo sapiens (Human), UniProt Q9H4B4); conditions: PLK3, 10000 nM; read-out: Percent Control
TSSK3 = TSSK3 (Homo sapiens (Human), UniProt Q96PN8); conditions: TSSK3, 10000 nM; read-out: Percent Control
FLT3(K663Q) = FLT3(K663Q) (Homo sapiens (Human), UniProt P36888, K663Q); conditions: 10000 nM, read-out: Percent Control
SNRK = SNRK (Homo sapiens (Human), UniProt Q9NRH2); conditions: 10000 nM, read-out: Percent Control
SNRK, sequence (Q9NRH2 whole entry): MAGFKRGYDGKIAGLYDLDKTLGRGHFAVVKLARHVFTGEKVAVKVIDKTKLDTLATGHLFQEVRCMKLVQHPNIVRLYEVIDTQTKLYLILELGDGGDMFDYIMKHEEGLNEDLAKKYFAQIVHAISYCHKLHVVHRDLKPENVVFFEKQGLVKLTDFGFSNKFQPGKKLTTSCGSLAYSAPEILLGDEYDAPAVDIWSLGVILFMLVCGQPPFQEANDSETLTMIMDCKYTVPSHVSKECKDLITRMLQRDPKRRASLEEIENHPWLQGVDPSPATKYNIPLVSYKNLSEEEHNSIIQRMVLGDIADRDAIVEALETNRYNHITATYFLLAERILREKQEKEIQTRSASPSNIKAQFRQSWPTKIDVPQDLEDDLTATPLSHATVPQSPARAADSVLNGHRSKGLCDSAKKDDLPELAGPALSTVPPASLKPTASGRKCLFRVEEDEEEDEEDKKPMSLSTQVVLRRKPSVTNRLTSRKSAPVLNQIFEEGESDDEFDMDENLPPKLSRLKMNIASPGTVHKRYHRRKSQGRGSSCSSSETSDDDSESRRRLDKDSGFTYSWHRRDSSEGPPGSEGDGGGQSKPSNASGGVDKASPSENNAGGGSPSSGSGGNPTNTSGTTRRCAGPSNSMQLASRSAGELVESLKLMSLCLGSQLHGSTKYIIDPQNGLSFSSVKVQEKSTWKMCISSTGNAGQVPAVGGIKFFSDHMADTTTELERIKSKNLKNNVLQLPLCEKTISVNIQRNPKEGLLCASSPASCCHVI

MEK1 = MEK1 (Homo sapiens (Human), UniProt Q02750); conditions: MEK1, 10000 nM; read-out: Percent Control
CAMK2B = CAMK2B (Homo sapiens (Human), UniProt Q13554); conditions: 10000 nM, read-out: Percent Control
ICK = ICK (Homo sapiens (Human), UniProt Q9UPZ9); conditions: 10000 nM, read-out: Percent Control
ICK, sequence (Q9UPZ9 whole entry): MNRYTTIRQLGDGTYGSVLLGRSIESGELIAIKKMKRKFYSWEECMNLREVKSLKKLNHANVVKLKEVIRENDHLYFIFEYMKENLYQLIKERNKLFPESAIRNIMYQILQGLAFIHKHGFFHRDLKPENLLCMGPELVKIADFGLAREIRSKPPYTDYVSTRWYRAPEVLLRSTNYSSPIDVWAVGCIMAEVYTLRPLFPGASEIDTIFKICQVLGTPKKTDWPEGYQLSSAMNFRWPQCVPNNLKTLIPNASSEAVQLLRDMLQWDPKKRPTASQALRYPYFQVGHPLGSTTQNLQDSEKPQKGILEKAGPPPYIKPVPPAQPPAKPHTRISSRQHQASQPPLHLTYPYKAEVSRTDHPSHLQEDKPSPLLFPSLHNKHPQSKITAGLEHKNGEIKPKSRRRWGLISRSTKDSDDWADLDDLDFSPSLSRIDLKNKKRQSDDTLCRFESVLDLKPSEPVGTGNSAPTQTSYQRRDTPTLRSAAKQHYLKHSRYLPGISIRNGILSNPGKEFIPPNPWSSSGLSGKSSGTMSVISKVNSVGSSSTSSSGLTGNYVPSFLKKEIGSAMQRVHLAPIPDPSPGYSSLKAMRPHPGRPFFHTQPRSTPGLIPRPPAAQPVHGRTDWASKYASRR

KIT(A829P) = KIT(A829P) (Homo sapiens (Human), UniProt P10721, A829P); conditions: 10000 nM, read-out: Percent Control
BRAF = BRAF (Homo sapiens (Human), UniProt P15056); conditions: 10000 nM, read-out: Percent Control
BRAF, sequence (P15056 whole entry): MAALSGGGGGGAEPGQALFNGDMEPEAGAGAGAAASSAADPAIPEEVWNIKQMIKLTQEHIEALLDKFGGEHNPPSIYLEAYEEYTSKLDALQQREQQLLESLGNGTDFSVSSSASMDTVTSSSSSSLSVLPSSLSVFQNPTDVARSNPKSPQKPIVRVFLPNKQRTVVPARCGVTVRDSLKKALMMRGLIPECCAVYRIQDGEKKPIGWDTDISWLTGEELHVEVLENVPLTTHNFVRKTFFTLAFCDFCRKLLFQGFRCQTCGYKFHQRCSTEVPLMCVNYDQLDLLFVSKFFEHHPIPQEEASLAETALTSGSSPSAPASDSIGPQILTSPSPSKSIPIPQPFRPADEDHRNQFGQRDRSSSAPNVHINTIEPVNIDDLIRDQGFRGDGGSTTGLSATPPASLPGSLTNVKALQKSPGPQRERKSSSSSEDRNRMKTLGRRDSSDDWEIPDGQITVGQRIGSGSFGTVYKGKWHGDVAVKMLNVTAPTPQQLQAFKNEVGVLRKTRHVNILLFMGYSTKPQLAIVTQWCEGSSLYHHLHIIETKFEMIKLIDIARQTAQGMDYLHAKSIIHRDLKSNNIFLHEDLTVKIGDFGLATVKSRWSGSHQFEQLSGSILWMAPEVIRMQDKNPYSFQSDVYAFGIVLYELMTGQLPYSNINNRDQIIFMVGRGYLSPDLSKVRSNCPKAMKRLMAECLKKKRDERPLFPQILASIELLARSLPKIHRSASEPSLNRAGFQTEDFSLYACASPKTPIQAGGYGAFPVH

BRAF(V600E) = BRAF(V600E) (Homo sapiens (Human), UniProt P15056, V600E); conditions: 10000 nM, read-out: Percent Control
BRAF(V600E), sequence (P15056 whole entry V600E): as the sequence (P15056 whole entry) above, with V600E counted along it

FRK = FRK (Homo sapiens (Human), UniProt P42685); conditions: 10000 nM, read-out: Percent Control
PIK3CA(Q546K) = PIK3CA(Q546K) (Homo sapiens (Human), UniProt P42336, Q546K); conditions: 10000 nM, read-out: Percent Control
PIK3CA(H1047Y) = PIK3CA(H1047Y) (Homo sapiens (Human), UniProt P42336, H1047Y); conditions: 10000 nM, read-out: Percent Control
GRK1 = GRK1 (Homo sapiens (Human), UniProt Q15835); conditions: GRK1, 10000 nM; read-out: Percent Control
CDC2L5 = CDC2L5 (Homo sapiens (Human), UniProt Q14004); conditions: CDC2L5, 10000 nM; read-out: Percent Control
Method: (§1) Selectivity profiling of compound 3 among a panel of kinases was performed with KINOMEscan® as set forth below. The KINOMEscan® screening platform employs an active site-directed competition binding assay to quantitatively measure interactions between a test compound, e.g., compound 3, and more than 450 kinases and disease-relevant mutant variants.
(§2) Screening of compound 3 was conducted at a concentration of 10 μM by Eurofins DiscoverX. Activity is measured as the ability of compound 3 to displace the kinase from a solid support relative to a negative control (i.e., DMSO). The output is % control.

PRP4 = PRP4 (Homo sapiens (Human), UniProt Q13523); conditions: PRP4, 10000 nM; read-out: Percent Control
Method: as §1, §2

SMILES	remaining binding at 10 µM (AURKC)	remaining binding at 10 µM (FLT3(D835V))	remaining binding at 10 µM (MAP3K4)	remaining binding at 10 µM (PLK4)	remaining binding at 10 µM (CSF1R-autoinhibited)	remaining binding at 10 µM (NLK)	remaining binding at 10 µM (VEGFR2)	remaining binding at 10 µM (NEK4)	remaining binding at 10 µM [1]	remaining binding at 10 µM (PAK2)	remaining binding at 10 µM (CSNK2A2)	remaining binding at 10 µM (BRK)	remaining binding at 10 µM [2]	remaining binding at 10 µM (ZAK)	remaining binding at 10 µM [3]	remaining binding at 10 µM (PIP5K1A)	remaining binding at 10 µM (MAP4K5)	remaining binding at 10 µM (PLK3)	remaining binding at 10 µM (TSSK3)	remaining binding at 10 µM (FLT3(K663Q))	also measured
COc1cc(N2CCC(N3CCN(C)CC3)CC2)ccc1Nc1ncc2c(n1)N(C)c1sc(C)nc1C(=O)N2 [Compound 3, 6-((2-methoxy-4-(4-(4-methylpiperazin-1-yl)piperidin-1-yl)phenyl)amino)-2,4-dimethyl-4,9-dihydro-10H-pyrimido[5,4-b]thiazolo[5,4-e][1,4]diazepin-10-one]	95%	57%	73%	81%	90%	59%	100%	100%	100%	72%	87%	66%	10%	92%	84%	100%	82%	52%	98%	96%	remaining binding at 10 µM (SNRK): 94%; remaining binding at 10 µM (MEK1): 100%; remaining binding at 10 µM (CAMK2B): 81%; remaining binding at 10 µM (ICK): 100%; remaining binding at 10 µM (KIT(A829P)): 47%; remaining binding at 10 µM (BRAF): 86%; remaining binding at 10 µM (BRAF(V600E)): 100%; remaining binding at 10 µM (FRK): 37%; remaining binding at 10 µM (PIK3CA(Q546K)): 100%; remaining binding at 10 µM (PIK3CA(H1047Y)): 91%; remaining binding at 10 µM (GRK1): 86%; remaining binding at 10 µM (CDC2L5): 100%; remaining binding at 10 µM (PRP4): 100%
COc1cc(N2CCC(N3CCN(C)CC3)CC2)ccc1Nc1ncc2c(n1)N(C)c1sc(C)nc1C(=O)N2C [Compound 5, 6-((2-methoxy-4-(4-(4-methylpiperazin-1-yl)piperidin-1-yl)phenyl)amino)-2,4,9-trimethyl-4,9-dihydro-10H-pyrimido[5,4-b]thiazolo[5,4-e][1,4]diazepin-10-one]	100%	97%	100%	19%	100%	93%	95%	100%	91%	89%	93%	100%	39%	100%	31%	100%	91%	20%	98%	96%	remaining binding at 10 µM (SNRK): 100%; remaining binding at 10 µM (MEK1): 95%; remaining binding at 10 µM (CAMK2B): 93%; remaining binding at 10 µM (ICK): 100%; remaining binding at 10 µM (KIT(A829P)): 100%; remaining binding at 10 µM (BRAF): 95%; remaining binding at 10 µM (BRAF(V600E)): 97%; remaining binding at 10 µM (FRK): 99%; remaining binding at 10 µM (PIK3CA(Q546K)): 94%; remaining binding at 10 µM (PIK3CA(H1047Y)): 100%; remaining binding at 10 µM (GRK1): 81%; remaining binding at 10 µM (CDC2L5): 100%; remaining binding at 10 µM (PRP4): 100%
